Common to all, as to type: cell-based
In one assay the test system is NSC-34 cells. The assay can be described thus: Stress-induced change of pre-miRNA processing in NSC-34 cells (qPCR). As to the method:
(§1) (FIG. 7A) miRNA expression level analysis in the motor neuron cell line NSC-34, treated with 6.25 nM Thapsigargin for 24 hrs, relative to cells treated with carrier alone (DMSO). Shown are average and s.d. of qPCR analyses of 3 independent experiments. Pre-miRNAs (light grey, normalized to Gapdh) and miRNAs (dark grey, normalized to Snord68). (FIG. 7B) mRNA levels encoding for proteins involved in the canonical stress response, normalized to the expression of beta-actin. (FIG. 7C) miRNA expression level analysis in mouse embryonic motor neurons, treated with 5 nM Thapsigargin for 72 hrs, relative to cells treated with carrier alone (DMSO). Shown are average and s.d. of qPCR analyses of three independent experiments. Pre-miRNAs (light grey, normalized to Gapdh and beta actin) and miRNAs (dark grey, normalized to Snord70). (FIG. 7D) mRNA markers of the canonical stress response, normalized to the expression of beta-actin. miRNA expression level analysis in NSC-34 cells, treated with Paraquat (PQ) (1 mM, 12 hrs, FIG. 7E) and sodium arsenite (0.5 mM, 60 min, FIG. 7F). pre-miRNA normalized to beta-actin mRNA (FIGS. 7E-F) and miRNAs to 5S (FIG. 7E) or to U6 and 5S (FIG. 7F). (FIGS. 7G-I) miRNA expression level analysis in mouse embryonic Wild-type fibroblasts (light grey) or phospho-mutant eIF2a S51A cells (black) treated with Thapsigargin (5 nM, 72 hrs) relative to carrier alone. Pre-miRNA (FIG. 7G) and mature miRNA (FIG. 7H) levels normalized to Gapdh and Snord68, respectively. (FIG. 7I) ATF4, which is induced by phosphorylation of eIF2a, was not induced in phospho-mutant eIF2a S51A cells. Significance of p-values from ANOVA tests is indicated by *p<0.05; **p<0.01. (FIGS. 7J-K) Western-Blot analysis of lysates from untreated NSC-34 cells (control) or cells treated with sodium arsenite (0.5 mM, 60 min). Phospho-specific immunodetection of eIF2a S51 phosphorylation (peIF2a) and total eIF2a levels (FIG. 7J), Dicer and Ago2 levels (FIG. 7K). (FIG. 7L) miRNA expression level analysis in mouse embryonic fibroblasts treated with Puromycin (1 μg/ml, 24 hrs), relative to cells treated with carrier alone (water). Pre-miRNAs (light grey, normalized to Gapdh) and miRNAs (dark grey, normalized to Snord68).
RNA was extracted using Tri reagent (Molecular Research Center Inc.) or Qiazol with consecutive use of the miRNeasy Mini Kit (Qiagen). Pre-miRNA and miRNA reverse transcription was performed using miScript Kits No. I & II (Qiagen). Quantitative analysis of miRNA and pre-miRNA expression performed in more than 3 independent biological repeats and additionally in technical duplicates with StepOnePlus quantitative Real-Time PCR System and 2-sided ANOVA-test performed with DataAssist Software (Life technologies Inc.). Next-generation sequencing of mouse precursor miRNAs and mature miRNAs was performed on two independent experimental repeats, as described in Newman et al. [Newman et al. (2011) RNA 17(10): 1795-1803]. miRNAs were normalized to spiked-in controls and pre-miRNAs were normalized to Snord72 and Snord95.
Stress and cytoplasmic stress granules (SGs) emerge as major pathogenic mechanisms of ALS [Kim et al. (2014) Nat Genet 46(2): 152-160]. Stress pathways are thought to control miRNA activity [Etude and Hornstein, EMBO J. (2014) July 1; 33(13):1428-37], but the idea that cellular stress might broadly regulate miRNA biogenesis was not yet tested. This hypothesis was tested herein by measurement of the relative expression levels of mature miRNAs and their precursors, pre-miRNAs, which provides a proxy for the efficacy of Dicer complex activity. […] Two other chemicals were tested that drive oxidative stress, namely Paraquat (PQ, 12 hrs, 1 mM) and sodium arsenite (1 hr, 0.5 mM). […] Therefore, several different cellular stress pathways negatively regulate miRNA biogenesis.
On the technique in general: Quantitative PCR measures a nucleic acid by following its amplification.

The test system of assay [1] is mouse embryonic fibroblasts (MEFs). The assay is described as follows: pre-miRNA and miRNA levels in mouse embryonic fibroblasts under stress. As to the method: as §1
(FIG. 9A) The ratio of pre-miRNA to mature miRNA levels in NSC-34 cells, transfected with plasmids as indicated and in cells treated for 72 hrs with carrier alone (water, black) or with cycloheximide (CHX, 0.02 μg/ml, gray). Data normalized to control plasmid transfection. Pre-miRNAs further normalized to Gapdh (for FUS R495X, TDP-43 A315T) or to beta-actin (SOD1 G93A) and miRNA levels normalized to Snord68. Average of three independent experiments except for pre-miRNAs in the study of FUS R495X (n=2). Targeted quantitative mass spectrometry analysis of changes in the binding of Ago2 or Dicer to a set of proteins interactors under stress (FIGS. 9B-E). Immunoprecipitated Ago2-Flag (FIG. 9B) or Dicer-Flag (FIG. 9C) from HEK 293 cells, cultured under basal conditions or treated with sodium arsenite (0.5 mM, 60 min) was subjected to targeted mass-spectrometry analysis. Data is averaged from two or three different peptide standards per protein and normalized to the levels of co-immunoprecipiated peptides from untreated cells. Statistically significant result in a student t-test, between arsenite and control treatment is denoted (*p<0.05). Targeted mass spectrometry of (FIG. 9D) Dicer cofactors or (FIG. 9E) SG components, immunoprecipitated with AGO-Flag in FUS R495X-expressing HEK 293 that were further treated for 72 hrs with carrier alone or Cycloheximide (0.02 μg/ml). (FIG. 9F) The ratio of pre-miRNA to mature miRNA levels in mouse embryonic fibroblasts, pretreated for 5 hrs with HSP90 inhibitors (17-AAG, 1 μM or Geldanamycin, 1 μM) and then incubated for 36 more hours with Thapsigargin (5 nM) in combinations with the respective HSP90 inhibitor. […]

Assay [2] has as its system mouse embryonic motor neurons. The assay is described as follows: Stress-induced change of miRNA biogenesis in primary mouse motor neurons. To be noted: 5 nM, 72 hrs. The procedure: (FIG. 7A) miRNA expression level analysis in the motor neuron cell line NSC-34, treated with 6.25 nM Thapsigargin for 24 hrs, relative to cells treated with carrier alone (DMSO). Shown are average and s.d. of qPCR analyses of 3 independent experiments. Pre-miRNAs (light grey, normalized to Gapdh) and miRNAs (dark grey, normalized to Snord68). (FIG. 7B) mRNA levels encoding for proteins involved in the canonical stress response, normalized to the expression of beta-actin. (FIG. 7C) miRNA expression level analysis in mouse embryonic motor neurons, treated with 5 nM Thapsigargin for 72 hrs, relative to cells treated with carrier alone (DMSO). Shown are average and s.d. of qPCR analyses of three independent experiments. Pre-miRNAs (light grey, normalized to Gapdh and beta actin) and miRNAs (dark grey, normalized to Snord70). (FIG. 7D) mRNA markers of the canonical stress response, normalized to the expression of beta-actin. miRNA expression level analysis in NSC-34 cells, treated with Paraquat (PQ) (1 mM, 12 hrs, FIG. 7E) and sodium arsenite (0.5 mM, 60 min, FIG. 7F). pre-miRNA normalized to beta-actin mRNA (FIGS. 7E-F) and miRNAs to 5S (FIG. 7E) or to U6 and 5S (FIG. 7F). (FIGS. 7G-I) miRNA expression level analysis in mouse embryonic Wild-type fibroblasts (light grey) or phospho-mutant eIF2a S51A cells (black) treated with Thapsigargin (5 nM, 72 hrs) relative to carrier alone. […]

Consider `C[n+]1ccc(-c2cc[n+](C)cc2)cc1` [Paraquat], for which, in the assay on NSC-34 cells (PQ, 12 hrs, 1 mM), the “mature miRNAs” value was “down-regulation of mature miRNAs” and the pre-miRNA levels result is reported as “up-regulation of pre-miRNA levels”.

As to `COc1ccc(C[C@H](N)C(=O)N[C@H]2[C@@H](O)[C@H](n3cnc4c(N(C)C)ncnc43)O[C@@H]2CO)cc1` [Puromycin], the “efficacy of pre-miRNA biogenesis” value in assay [1] (1 μg/ml, 24 hrs) was “decreased the efficacy of pre-miRNA biogenesis”.

Consider `C/C=C(/C)C(=O)O[C@H]1C(C)=C2[C@H]([C@@H]1OC(=O)CCCCCCC)[C@@](C)(OC(C)=O)C[C@H](OC(=O)CCC)[C@@]1(O)[C@H]2OC(=O)[C@@]1(C)O` [Thapsigargin], for which, in the assay with NSC-34 cells (6.25 nM, 24 hrs), the “RNA markers of ER-stress: ASNS, ATF4, CHOP and GRP78” value is “up-regulation of RNA markers of ER-stress”; the “mature miRNAs levels” value is listed as “down-regulate mature miRNAs levels”; the miRNA precursors levels result is “up-regulate miRNA precursors levels”. In addition, in assay [2], the “markers of ER-stress” value is “up-regulated markers of ER-stress” and the miRNA biogenesis result is recorded as “affected miRNA biogenesis”. Besides, in assay [1] (eIF2a S51A MEFs, 5 nM, 72 hrs), the “ATF4 mRNA levels” value is on record as “failed to upregulate ATF4 mRNA levels”; the “Dicer inhibition (pre-miRNA and mature miRNA levels)” value is reported as “partial recovery from Thapsigargin-induced Dicer inhibition”. Besides, in assay [1] (wild-type MEFs, 5 nM, 72 hrs), the “mature miRNA species” value is given as “relative depletion of the corresponding mature miRNA species” and the pre-miRNAs entry was “accumulation of pre-miRNAs”.

Regarding `C=CCNC1=C2C[C@@H](C)C[C@H](OC)[C@H](O)[C@@H](C)/C=C(\C)[C@H](OC(N)=O)[C@@H](OC)/C=C\C=C(/C)C(=O)NC(=CC1=O)C2=O` [17-AAG], the “Thapsigargin-induced inhibition of miRNA biogenesis (ratio of pre-miRNA to mature miRNA)” value in assay [1] (HSP90 inhibitor 1 μM, 5 hrs pretreatment, then 36 hrs with Thapsigargin 5 nM) is on record as “aggravated Thapsigargin-induced inhibition of miRNA biogenesis”.

The values are drawn from US10159670B2, “Methods of diagnosing and treating motor neuron diseases and other cellular stress-related diseases” (priority 2012, dated 2018).
